Results taken from patent publication US20180021360A1, “Combination Therapy Regimen For Treatment Of Selected HCV Genotypes” (JANSSEN PHARMACEUTICALS, INC., priority 2016, published 2018).

Experiments:
[1] = PK of single agents vs fixed dose combinations, single dose in healthy volunteers (Example 13); assay type: in vivo, human; conditions: mean ± SD
Protocol: SMV (100 mg), ODV (50 mg), and Compound (III) (800 mg) were administered as three different formulations or together as single doses in vivo to healthy volunteers. The arms of the study included: • Arm 1 (Reference Arm): Single oral doses of single agents, one SMV 100-mg capsule, one ODV 50-mg tablet as granule layered solid dispersion with copovidone and poloxamers, and two Compound (III) 400-mg tablets, administered together. • Arm 2: Single oral dose of fixed dose combination (FDC02): SMV 100 mg+ODV 50 mg as a spray dried solid dispersion with HPMC-AS L in a ratio ODV/HPMC-AS L 1/1 w/w+Compound (III) 800 mg • Arm 3: Single oral dose of fixed dose combination (FDC04): SMV 100 mg+ODV 50 mg as a spray dried solid dispersion with HPMC-AS L in a ratio ODV/HPMC-AS L 1/3 w/w+Compound (III) 800 mg • Arm 4: Single oral dose of fixed dose combination (FDC01): SMV 100 mg+ODV 50 mg as a spray dried solid dispersion with copovidone and poloxamers+Compound (III) 800 mg
PK parameters, including Cmax, tmax, AUClast, and AUC∞ were measured for Compound (III), ODV, SMV, and metabolites Compound A-1 and Compound A-3 for each Arm of the study. Arms that included fixed dose combinations (FDC) (Arm 2, Arm 3, and Arm 4) were then compared to a single oral dose (Arm 1, the reference Arm). Table 9, Table 10, Table 11, Table 12 and Table 13 display relevant PK parameters and FIG. 9, FIG. 10, FIG. 11, FIG. 12, and FIG. 13 depict the plasma concentration over time of SMV, ODV, Compound A-1, and Compound A-3 for each Arm of the study.

[2] = target: T1, OATP1B1 (Homo sapiens, UniProt Q9Y6L6); conditions: cited from earlier work
T1 sequence (Q9Y6L6 1-691): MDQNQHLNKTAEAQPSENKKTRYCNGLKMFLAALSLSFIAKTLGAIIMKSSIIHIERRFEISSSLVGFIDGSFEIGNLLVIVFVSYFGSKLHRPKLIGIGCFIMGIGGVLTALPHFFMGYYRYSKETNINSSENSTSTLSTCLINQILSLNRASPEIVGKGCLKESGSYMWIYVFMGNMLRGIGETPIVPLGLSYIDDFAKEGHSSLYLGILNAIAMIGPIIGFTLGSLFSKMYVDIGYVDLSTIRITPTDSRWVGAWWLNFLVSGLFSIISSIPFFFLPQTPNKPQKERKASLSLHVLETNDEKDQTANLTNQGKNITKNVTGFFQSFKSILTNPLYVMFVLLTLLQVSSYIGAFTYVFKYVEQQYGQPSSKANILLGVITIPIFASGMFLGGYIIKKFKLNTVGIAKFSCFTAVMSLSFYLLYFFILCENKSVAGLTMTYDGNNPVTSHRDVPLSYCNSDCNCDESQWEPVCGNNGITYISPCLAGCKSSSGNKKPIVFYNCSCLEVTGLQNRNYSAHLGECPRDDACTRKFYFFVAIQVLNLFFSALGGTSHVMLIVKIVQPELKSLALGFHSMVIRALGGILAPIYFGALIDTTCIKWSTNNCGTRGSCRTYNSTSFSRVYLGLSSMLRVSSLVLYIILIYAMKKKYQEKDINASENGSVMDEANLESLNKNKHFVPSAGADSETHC

[3] = Phase-1 drug-drug interaction study of Odalasvir, Simeprevir and Compound (III) in healthy volunteers; assay type: in vivo, human
Excerpt: The following daily doses were employed:

[4] = target: P-gp (Homo sapiens, UniProt P08183); conditions: cited from earlier work
[5] = co-administered with SMV; cited from earlier work
[6] = system: CYP; assay: CYP inhibition potential; conditions: any CYP
[7] = target: MRP2 (Homo sapiens, UniProt Q92887); conditions: cited from earlier work
[8] = target: BSEP (Homo sapiens, UniProt O95342); conditions: cited from earlier work
[9] = co-administered with SMV; cited from earlier work; remark: listed apart in the source
[10] = Phase 2a open-label combination study, pharmacokinetics; assay type: in vivo, human
Protocol: A randomized, Phase 2a, open-label study was carried out to evaluate the safety, pharmacokinetics and efficacy of the combination of Compound (III), Odalasvir and Simeprevir in Genotype 1 treatment-naïve subjects with chronic hepatitis C. Other treatment-naïve subjects included Genotype 2, 3, 4, 5 and 6.
The aim of the study was to determine the efficacy, pharmacokinetics (PK), and safety of Compound (II)+Odalasvir±SMV in HCV-infected subjects.
This was an open-label study evaluating various dosing regimens of Compound (III)+Odalasvir±SMV for 6-8 weeks in treatment-nave HCV-infected subjects with varying clinical characteristics (e.g., GT 1 or 3, presence/absence of compensated Child Pugh A cirrhosis). Efficacy, PK and safety evaluations were conducted during and through 24 weeks post dosing. Up to 15 cohorts were enrolled; data was generated from cohorts that have completed dosing.

[11] = system: HCV genotype 3; assay: activity against genotype 3 in vitro; parameters: species or system hepatitis C virus
[12] = target: T2, OATP1B3 (Homo sapiens, UniProt Q9NPD5); conditions: cited from earlier work
T2 sequence (Q9NPD5 1-702): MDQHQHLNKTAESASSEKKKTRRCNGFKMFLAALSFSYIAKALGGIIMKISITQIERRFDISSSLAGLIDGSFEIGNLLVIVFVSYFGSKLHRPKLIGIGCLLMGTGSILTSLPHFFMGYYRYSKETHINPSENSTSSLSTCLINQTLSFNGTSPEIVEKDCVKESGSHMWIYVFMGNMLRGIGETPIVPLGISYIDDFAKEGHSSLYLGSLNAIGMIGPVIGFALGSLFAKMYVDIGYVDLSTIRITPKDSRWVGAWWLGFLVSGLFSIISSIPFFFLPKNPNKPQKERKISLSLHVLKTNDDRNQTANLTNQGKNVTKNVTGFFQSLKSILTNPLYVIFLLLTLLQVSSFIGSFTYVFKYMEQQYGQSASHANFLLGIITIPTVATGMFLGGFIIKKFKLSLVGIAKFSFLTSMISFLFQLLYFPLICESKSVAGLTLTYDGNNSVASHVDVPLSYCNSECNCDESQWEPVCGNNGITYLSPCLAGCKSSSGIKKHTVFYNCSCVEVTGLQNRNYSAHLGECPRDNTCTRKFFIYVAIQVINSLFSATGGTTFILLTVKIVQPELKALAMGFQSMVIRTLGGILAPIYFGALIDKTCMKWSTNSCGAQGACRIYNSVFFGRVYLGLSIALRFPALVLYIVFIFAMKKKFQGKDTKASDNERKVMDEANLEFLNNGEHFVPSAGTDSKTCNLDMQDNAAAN

[13] = target: T3, BCRP (Homo sapiens, UniProt Q9UNQ0); conditions: cited from earlier work
T3 sequence (Q9UNQ0 1-655): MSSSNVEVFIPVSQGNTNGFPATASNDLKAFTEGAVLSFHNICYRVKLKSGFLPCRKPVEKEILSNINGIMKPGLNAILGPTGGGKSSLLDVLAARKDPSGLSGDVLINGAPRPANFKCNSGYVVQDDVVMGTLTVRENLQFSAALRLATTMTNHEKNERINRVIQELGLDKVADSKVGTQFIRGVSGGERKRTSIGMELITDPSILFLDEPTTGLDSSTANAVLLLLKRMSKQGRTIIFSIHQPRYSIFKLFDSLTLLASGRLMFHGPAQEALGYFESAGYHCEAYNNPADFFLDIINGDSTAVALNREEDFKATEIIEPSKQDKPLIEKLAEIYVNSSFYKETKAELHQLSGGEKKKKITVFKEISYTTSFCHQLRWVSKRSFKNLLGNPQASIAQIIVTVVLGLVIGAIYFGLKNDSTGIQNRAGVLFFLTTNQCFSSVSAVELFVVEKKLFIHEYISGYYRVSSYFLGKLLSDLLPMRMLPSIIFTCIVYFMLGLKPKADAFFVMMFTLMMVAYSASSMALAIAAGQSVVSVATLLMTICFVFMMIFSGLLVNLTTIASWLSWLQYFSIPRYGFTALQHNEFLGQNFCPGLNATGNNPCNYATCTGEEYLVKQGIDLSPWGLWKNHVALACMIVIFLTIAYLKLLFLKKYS

[14] = Arm 1 (reference): single agents
[15] = Arm 4: FDC01 (SMV 100 mg + ODV 50 mg spray dried with copovidone and poloxamers + Compound (III) 800 mg)

Sequence of BSEP (O95342 whole entry): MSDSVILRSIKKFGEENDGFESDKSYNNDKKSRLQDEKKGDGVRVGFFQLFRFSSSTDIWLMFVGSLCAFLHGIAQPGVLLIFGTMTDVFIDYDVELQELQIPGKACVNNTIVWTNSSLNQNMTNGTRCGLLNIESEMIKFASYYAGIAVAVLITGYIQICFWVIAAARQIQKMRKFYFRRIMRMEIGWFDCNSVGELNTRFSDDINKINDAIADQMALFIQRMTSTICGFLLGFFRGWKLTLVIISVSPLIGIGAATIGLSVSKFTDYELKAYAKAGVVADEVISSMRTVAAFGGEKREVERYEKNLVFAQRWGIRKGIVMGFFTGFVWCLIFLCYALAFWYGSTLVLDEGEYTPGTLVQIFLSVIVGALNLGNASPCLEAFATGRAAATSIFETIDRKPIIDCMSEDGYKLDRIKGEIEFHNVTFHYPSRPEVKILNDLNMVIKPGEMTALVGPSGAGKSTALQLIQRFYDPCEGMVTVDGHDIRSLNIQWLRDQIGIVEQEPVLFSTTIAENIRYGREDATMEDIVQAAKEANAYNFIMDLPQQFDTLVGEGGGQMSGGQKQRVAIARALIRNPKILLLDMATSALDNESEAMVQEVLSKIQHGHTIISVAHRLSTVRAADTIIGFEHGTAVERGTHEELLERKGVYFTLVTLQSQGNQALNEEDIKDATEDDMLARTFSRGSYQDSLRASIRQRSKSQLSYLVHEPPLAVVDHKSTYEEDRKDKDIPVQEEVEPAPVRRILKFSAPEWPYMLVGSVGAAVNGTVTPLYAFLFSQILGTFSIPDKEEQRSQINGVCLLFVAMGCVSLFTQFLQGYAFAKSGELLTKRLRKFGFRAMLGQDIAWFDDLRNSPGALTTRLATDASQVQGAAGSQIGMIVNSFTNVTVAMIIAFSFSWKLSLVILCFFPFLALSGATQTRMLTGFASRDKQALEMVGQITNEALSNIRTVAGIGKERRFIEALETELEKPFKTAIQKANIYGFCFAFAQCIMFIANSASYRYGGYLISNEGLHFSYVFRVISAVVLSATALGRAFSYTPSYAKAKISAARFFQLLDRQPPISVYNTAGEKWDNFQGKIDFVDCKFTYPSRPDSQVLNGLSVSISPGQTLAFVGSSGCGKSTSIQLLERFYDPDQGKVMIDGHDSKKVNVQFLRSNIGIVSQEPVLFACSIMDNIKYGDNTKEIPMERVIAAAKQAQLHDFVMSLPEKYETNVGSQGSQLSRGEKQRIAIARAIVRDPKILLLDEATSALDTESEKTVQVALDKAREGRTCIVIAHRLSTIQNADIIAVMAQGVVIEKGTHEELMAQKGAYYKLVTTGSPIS
Sequence of P-gp (P08183 whole entry): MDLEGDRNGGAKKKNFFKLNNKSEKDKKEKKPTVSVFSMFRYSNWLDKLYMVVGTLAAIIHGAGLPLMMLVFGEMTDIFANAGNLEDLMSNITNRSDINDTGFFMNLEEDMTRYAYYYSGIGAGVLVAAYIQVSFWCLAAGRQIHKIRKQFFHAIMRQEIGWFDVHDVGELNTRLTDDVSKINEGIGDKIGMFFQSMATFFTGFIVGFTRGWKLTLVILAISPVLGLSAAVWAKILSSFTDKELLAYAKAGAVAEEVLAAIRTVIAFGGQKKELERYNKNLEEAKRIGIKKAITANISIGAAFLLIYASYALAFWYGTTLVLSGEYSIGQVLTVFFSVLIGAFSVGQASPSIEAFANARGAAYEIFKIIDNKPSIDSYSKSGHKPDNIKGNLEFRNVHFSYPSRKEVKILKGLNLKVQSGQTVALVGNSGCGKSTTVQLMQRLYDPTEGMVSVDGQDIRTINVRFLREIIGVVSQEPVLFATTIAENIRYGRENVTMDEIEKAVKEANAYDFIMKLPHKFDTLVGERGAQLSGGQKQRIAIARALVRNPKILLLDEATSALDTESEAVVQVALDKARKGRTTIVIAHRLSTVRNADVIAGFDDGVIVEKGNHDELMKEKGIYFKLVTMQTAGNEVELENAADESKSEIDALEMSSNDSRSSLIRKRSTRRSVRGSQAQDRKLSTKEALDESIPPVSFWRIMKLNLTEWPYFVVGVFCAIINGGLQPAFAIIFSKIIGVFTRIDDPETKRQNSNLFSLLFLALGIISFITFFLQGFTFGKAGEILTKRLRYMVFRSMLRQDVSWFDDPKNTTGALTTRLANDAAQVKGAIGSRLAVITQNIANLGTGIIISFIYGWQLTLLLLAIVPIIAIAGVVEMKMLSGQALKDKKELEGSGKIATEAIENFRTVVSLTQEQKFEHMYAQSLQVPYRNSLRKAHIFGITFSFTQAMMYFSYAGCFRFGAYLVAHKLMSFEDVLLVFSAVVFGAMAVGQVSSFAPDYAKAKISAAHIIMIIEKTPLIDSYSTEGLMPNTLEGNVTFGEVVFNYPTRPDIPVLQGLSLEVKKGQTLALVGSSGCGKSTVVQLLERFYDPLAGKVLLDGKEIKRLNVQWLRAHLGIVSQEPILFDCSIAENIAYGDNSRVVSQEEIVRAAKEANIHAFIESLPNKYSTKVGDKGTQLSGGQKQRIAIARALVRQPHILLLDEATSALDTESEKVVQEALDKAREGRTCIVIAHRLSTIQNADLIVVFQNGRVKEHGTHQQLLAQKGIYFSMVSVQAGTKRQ
Sequence of MRP2 (Q92887 whole entry): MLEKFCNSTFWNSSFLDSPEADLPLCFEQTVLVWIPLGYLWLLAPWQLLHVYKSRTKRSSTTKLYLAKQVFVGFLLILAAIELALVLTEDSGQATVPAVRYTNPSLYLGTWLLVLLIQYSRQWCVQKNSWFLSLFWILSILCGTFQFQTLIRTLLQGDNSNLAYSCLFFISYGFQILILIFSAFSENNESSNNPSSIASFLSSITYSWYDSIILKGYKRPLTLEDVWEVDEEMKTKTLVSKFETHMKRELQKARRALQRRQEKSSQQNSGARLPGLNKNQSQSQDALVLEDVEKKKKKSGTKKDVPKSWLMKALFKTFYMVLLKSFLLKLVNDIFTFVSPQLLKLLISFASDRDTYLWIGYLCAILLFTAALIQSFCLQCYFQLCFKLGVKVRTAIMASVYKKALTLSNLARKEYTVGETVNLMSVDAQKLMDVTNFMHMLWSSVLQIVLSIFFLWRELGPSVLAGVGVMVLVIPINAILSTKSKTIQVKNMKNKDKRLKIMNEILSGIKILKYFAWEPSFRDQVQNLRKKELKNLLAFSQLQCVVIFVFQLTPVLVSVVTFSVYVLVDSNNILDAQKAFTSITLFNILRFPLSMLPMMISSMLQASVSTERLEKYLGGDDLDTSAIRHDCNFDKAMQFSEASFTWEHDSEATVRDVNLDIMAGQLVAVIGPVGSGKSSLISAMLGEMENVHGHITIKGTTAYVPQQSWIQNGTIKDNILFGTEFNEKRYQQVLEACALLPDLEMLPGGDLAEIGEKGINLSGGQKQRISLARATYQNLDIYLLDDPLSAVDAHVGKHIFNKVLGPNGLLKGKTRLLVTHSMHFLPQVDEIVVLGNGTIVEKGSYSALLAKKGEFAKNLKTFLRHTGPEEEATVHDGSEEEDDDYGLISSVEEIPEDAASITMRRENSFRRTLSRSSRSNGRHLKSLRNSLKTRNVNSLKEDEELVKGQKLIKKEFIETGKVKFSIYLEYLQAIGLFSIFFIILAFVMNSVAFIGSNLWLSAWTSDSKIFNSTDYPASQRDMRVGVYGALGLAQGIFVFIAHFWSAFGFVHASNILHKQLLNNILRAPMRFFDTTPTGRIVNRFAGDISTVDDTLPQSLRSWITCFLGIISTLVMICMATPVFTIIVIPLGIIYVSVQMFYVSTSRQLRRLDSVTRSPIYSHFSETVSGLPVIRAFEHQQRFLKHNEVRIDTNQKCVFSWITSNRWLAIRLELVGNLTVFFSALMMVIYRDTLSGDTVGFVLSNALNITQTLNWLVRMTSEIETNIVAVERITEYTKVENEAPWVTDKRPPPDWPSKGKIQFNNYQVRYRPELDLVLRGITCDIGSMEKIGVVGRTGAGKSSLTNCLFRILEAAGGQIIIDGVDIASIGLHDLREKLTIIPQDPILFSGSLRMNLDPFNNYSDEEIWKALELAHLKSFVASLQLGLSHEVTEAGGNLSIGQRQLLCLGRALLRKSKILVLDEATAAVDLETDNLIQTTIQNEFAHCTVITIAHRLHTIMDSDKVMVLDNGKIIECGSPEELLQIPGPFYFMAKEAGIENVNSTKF

Structure (SMILES)	t1/2term [1, 14] [h]	t1/2term ([1]; Arm 2: FDC02) [h]	AUClast ([1]; Arm 3: FDC04) [ng·h/mL]	t1/2term ([1]; Arm 3: FDC04) [h]	t1/2term ([1]; Arm 4: FDC01) [h]	in vitro inhibition of OATP1B1 [2]	increase of exposure caused by Odalasvir ([3]; DDI study results) [×]	CYP inhibition potential [6]	increase of exposure caused by SMV ([3]; DDI study results)	AUC∞ ([1]; Arm 2: FDC02) [ng·h/mL]	Cmax [1, 15] [ng/mL]	AUClast ([1]; Arm 4: FDC01) [ng·h/mL]	AUC∞ ([1]; Arm 4: FDC01) [ng·h/mL]	also measured
COc1ccc2c(O[C@@H]3C[C@H]4C(=O)N[C@]5(C(=O)NS(=O)(=O)C6CC6)C[C@H]5/C=C\CCCCN(C)C(=O)[C@@H]4C3)cc(-c3nc(C(C)C)cs3)nc2c1C [Simeprevir, reference compound]	8.3 ± 1.8	8.7 ± 2.3	12893 ± 5828	9.1 ± 1.6	8.5 ± 1.5	strong in vitro inhibition	1.6	limited	–	–	–	–	–	Cmax ([1]; Arm 3: FDC04 (SMV 100 mg + ODV 50 mg spray dried with HPMC-AS L 1/3 w/w + Compound (III) 800 mg)): 906 ± 321 ng/mL; AUC∞ ([1]; Arm 3: FDC04): 13449 ± 6015 ng·h/mL; effect of Compound (III) on SMV or ODV ([3]; DDI study results): no apparent effect; increase of exposure, effect of the three Compounds ([3]; DDI study results): 1.6 ×; increase of exposure on co-administration of Compounds I, II and III ([3]; human in vivo study (Example 1)): 1.6 times; effect of Compound (III) on bioavailability of SMV or ODV ([3]; human, in vivo): does not alter; increase of bioavailability of SMV by ODV ([3]; human, in vivo): 1.6 fold; in vitro inhibition of P-gp [4]: strong/moderate; increase in Rosuvastatin exposure [5]: 3 fold; in vitro inhibition of MRP2 [7]: strong/moderate; in vitro inhibition of BSEP [8]: strong/moderate; increase in exposure of Digoxin [9]: 35%; observed exposures in Cohort 1 / group (i) ([10]; Compound (III) 400 mg, ODV 50 mg QD, SMV 100 mg QD): higher than anticipated; decrease of SMV exposure on reducing SMV dosing from 100 mg to 75 mg QD ([10]; in vivo): less than proportionally
CC(C)OC(=O)[C@H](C)N[P@](=O)(OC[C@@]1(F)O[C@@H](n2ccc(=O)[nH]c2=O)[C@](C)(O)[C@@H]1O)Oc1ccccc1 [Compound (III), isopropyl ((S)-(((2S,3S,4R,5R)-5-(2,4-dioxo-3,4-dihydropyrimidin-1 (2H)-yl)-2-fluoro-3,4-dihydroxy-4-methyltetrahydrofuran-2-yl)methoxy)(phenoxy)phosphoryl)-L-alaninate]	0.6 ± 0.1	0.7 ± 0.2	–	0.7 ± 0.1	0.6 ± 0.1	no in vitro inhibition	4	limited	3 ×	–	–	–	–	bioavailability when SMV and ODV are co-administered with Compound (III), compared to Compound (III) alone ([3]; both, human, in vivo): approximately 8 fold; activity against genotype 3 in vitro [11]: effective; in vitro inhibition of OATP1B3 [12]: no in vitro inhibition; in vitro inhibition of BCRP [13]: no in vitro inhibition
C[C@H](NP(=O)(O)OC[C@@]1(F)O[C@@H](n2ccc(=O)[nH]c2=O)[C@](C)(O)[C@@H]1O)C(=O)O [Compound A-3]	2.6 ± 1.4	2.3 ± 0.6	–	2.9 ± 1.5	2.5 ± 0.7	–	2.6	–	1.6 ×	817 ± 133	197 ± 62.1	909 ± 244	926 ± 245	AUClast ([1]; Arm 2: FDC02): 790 ± 157 ng·h/mL
C[C@]1(O)[C@H](n2ccc(=O)[nH]c2=O)O[C@](F)(CO)[C@H]1O [Compound A-1]	19.6 ± 2.7	20.5 ± 3.3	4714 ± 1310	20.2 ± 3.5	18.3 ± 3.5	–	1.5	–	no apparent effect	4369 ± 1345	607 ± 208	4693 ± 1418	4555 ± 787	change of A-1 exposure on increasing the Compound (III) dose from 400 to 800 mg ([10]; in vivo): less than proportionally
